We go through twelve compounds from patent publication US10675360B2 (MADRIGAL PHARMACEUTICALS, INC., priority 2014, dated 2020).

Read-outs that look alike come from different tables or passages of the source. Where only a bound is given, the exact number is not on record here.

One data set relates to H 3211 NSLC cells. The data set can be described thus: IC50 of continuous and pulsed exposure to SDC-TRAPs. Format: cell-based.
The nature of data set [1]: Stability in mouse plasma. The note with it: for % Remaining: 1 h; for Mouse (10 μM) % Remaining 1 h (37° C.) §: § not explained. In kind it is in vitro ADME.
Procedure: SDC-TRAP-0022 and SDC-TRAP-0028 were incubated in human and mouse plasma for 2 h at 37° C. and assayed for integrity at 0.25, 0.5, 1 and 2 h. The values reported below are the remaining of the parent compound at the end of the 2 h incubation period.
This solution was used to precipitate all plasma samples in the study. 200 μL was pipetted into a 96 deepwell plate over dry ice. 10 μL of 1 mM stock in DMSO was added to a 1.5 mL microfuge tube, then 990 μL of plasma. Samples were mixed by vortex, then 50 μL of each sample was added in triplicate to a 96-well plate containing internal standard solution. This was designated the 0 hour time point sample. 250 μL of the remaining plasma sample was added to each of four 96 deepwell plates—one per time point. Samples were incubated at 37° C. with gentle shaking for 0.25, 0.5, and 1 hour. After each time point, one plate of each sample was removed from the shaker and placed on wet ice for approximately 2 minutes. 50 μL plasma aliquots (in triplicate) were added to the deepwell plate containing internal standard solution. After the last time point was extracted, the 96 deepwell plate was vortexed, then centrifuged at 2-8° C. 150 μL of supernatant was collected and 25 μL of water was added. Samples were mixed and analyzed by LC-MS/MS.
The stability of seven SDC-TRAP types in mouse plasma was measured as follows. 990 μL mouse plasma aliquots from a common stock were spiked with 10 μL of 1 mM stock of one of seven SDC-TRAP samples identified in the table below. Each sample was mixed and divided into 250 μL aliquots, each representing time points 0, 15 minutes, 30 minutes or 1 hour. At the prescribed time point, 3×50 μL samples were each mixed with 200 μL of methanol containing internal standard and held on dry ice until all time point samples were extracted. The samples collectively were vortex mixed for 1.5 minutes at 1500 rpm, then centrifuged at 4400 rpm for 10 minutes at 8° C.
Data set [2] in a line: Stability in cell culture media. The conditions noted are these: § not explained.
Procedure: 98 μL of DMEM+10% FBS, +1% P/S, +1.5 g/L sodium bicarbonate cell culture media was mixed with 2 μL of DMSO and aliquotted into 96-well plates at 250 μL per 0, 1, 2, and 18 hour time point.
3×50 μL media samples in 96 were held in 96-well plates at −80° C. until the last time point was extracted. 200 μL of methanol containing IS was added and mixed by vortex at 1500 rpm for 1.5 minutes at room temperature. The samples were centrifuged at 4400 rpm for 10 minutes at 8° C.
The nature of data set [3]: Tissue distribution of SDC-TRAPs in tumor-bearing mice (plasma, tumor, heart). The conditions noted are these: mouse, in vivo; for Kp: tissue distribution of SDC-TRAP-0076, read-out: Tumor/Plasma Ratio.
Procedure: Using the 10 mM stock solutions of the SDC-TRAP molecule and its Hsp90i binding moiety and effector moiety in DMSO, spiking solutions were prepared at 0.025, 0.05, 0.1, 0.5, 1, 5, 10, 50, 100, 250, and 500 μM in DMSO. 5 μL of each spiking solution was added to a 96-deep well plate.
Quality control standards were prepared from 5 μL of 0.1, 1, and 10 μM calibration standard spiking solution added in triplicate into 96-deep well plate and adding 50 μL of matrix (plasma or homogenized tumor).
To prepare test samples, test plasma was diluted as needed using blank plasma. Tumor samples were pulverized in liquid nitrogen, weighed, and homogenized in PBS at 5× volume to sample weight. 50 μL of unknown plasma or homogenized tumor sample was mixed with 5 μL of DMSO. The samples were extracted by precipitating calibration standards, QC standards, and unknown samples with 200 μL of internal standard solution. The samples were mixed by vortex at room temperature for approximately 1.5 minutes, then centrifuge at 2-8° C. 150 μL of supernatant was collected and 25 μL of water added. Samples were mixed and analyzed by LC-MS/MS.
Samples of plasma, heart and tumor were excised from a euthanized mouse, homogenized in PBS at 5 times tissue weight and diluted in 5 μL DMSO/50 μL sample. Prior to analysis, 55 μL samples and calibration standards were precipitated in 200 μL methanol in 96-well plates. Samples were mixed on a vortex mixer for 1.5 minutes at 1500 rpm at room temperature, then centrifuged at 4400 rpm for 10 minutes at 8° C. 150 μL of each supernatant was transferred to a well of a new 96-well plate, and 25 μL of water was added and mixed with the sample. […] For the analysis of samples from female SCID mice, a gradient of solvent A (water/0.1% formic acid) and B (acetonitrile/0.1% formic acid) was used as in Table A below.
A short description of data set [4]: Tissue distribution of ganetespib in female CD-1 nu/nu mice bearing RERF human NSCLC xenografts. In kind it is in vivo, mouse. The note with it: ganetespib 50 mg/kg IV. As for the experimental part:
To confirm the distribution of ganetespib in blood, livers, kidneys, brains, hearts, lungs and tumors after IV administration of ganetespib to female CD-1 nu/nu mice bearing RERF human NSCLC xenografts, and to examine metabolic profiles of ganetespib in plasma, red blood cells, and above tissues.
Animals: female CD-1 nu/nu mice bearing RERF human NSCLC xenografts (N=3/group)
Formulation: 10% DMSO, 18% Cremophor RH40, 3.6% dextrose solution (DRD)
Bleeding time points: 5 min, 6, 24 hr
Collected tissues: blood (plasma and red blood cells (RBC)), liver, kidneys, brain, heart, lung, tumor
Protein precipitation: 50 μL of 10 times diluted plasma or RBC+150 μL ACN (10 mM NH4OAc), vortexed and centrifuged at 10000 rpm for 8 min; 150 μL supernatant+150 μL water (10 mM NH4OAc)
Protein precipitation: 100 μL homogenized tissue (1:3 tissue: PBS buffer)+100 μL ACN (10 mM NH4OAc), vortexed and centrifuged at 10000 rpm for 8 min

The mark [5] stands for this setting: 1 h, read-out: IC50, 1 h-pulse/71 h-compound free, H 3211 NSLC cells, 7.5 × 10^3 cells/well, 1st of 2 columns.
The mark [6] stands for this setting: 1 h, read-out: IC50, 1 h-pulse/71 h-compound free, H 3211 NSLC cells, 7.5 × 10^3 cells/well, 2nd of 2 columns.
[7] abbreviates: 72 h, read-out: IC50, 72 h-continuous, H 3211 NSLC cells, 7.5 × 10^3 cells/well, 1st of 3 columns.
[8] abbreviates: 72 h, read-out: IC50, 72 h-continuous, H 3211 NSLC cells, 7.5 × 10^3 cells/well, 2nd of 3 columns.
[9] abbreviates: 72 h, read-out: IC50, 72 h-continuous, H 3211 NSLC cells, 7.5 × 10^3 cells/well, 3rd of 3 columns.

For the compound `CC(C)c1cc(-c2nnc(O)n2-c2ccc3c(ccn3CCN(C)C(=O)NCC(=O)Nc3cccc4c3CN(C3CCC(=O)NC3=O)C4=O)c2)c(O)cc1O` (stereo not shown) [SDC-TRAP-0021, 2-(3-(2-(5-(3-(2,4-dihydroxy-5-isopropylphenyl)-5-hydroxy-4H-1,2,4-triazol-4-yl)-1H-indol-1-yl)ethyl)-3-methylureido)-N-(2-(2,6-dioxopiperidin-3-yl)-1-oxoisoindolin-4-yl)acetamide], the IC50 in the data set on H 3211 NSLC cells (setting [5]) was above 3 µM; in the data set on H 3211 NSLC cells (setting [6]) it was above 3 µM; with H 3211 NSLC cells (setting [7]), 0.431 µM; in the data set with H 3211 NSLC cells (setting [8]) it was 0.817 µM; with H 3211 NSLC cells (setting [9]) it was 0.902 µM.

Consider `CCc1c2c(nc3ccc(OCC(=O)NCCn4ccc5cc(-n6c(O)nnc6-c6cc(C(C)C)c(O)cc6O)ccc54)cc13)-c1cc3c(c(=O)n1C2)COC(=O)C3(O)CC` (stereo not shown) [SDC-TRAP-0023, 2-((4,11-diethyl-4-hydroxy-3,14-dioxo-3,4,12,14-tetrahydro-1H-pyrano[3′,4′: 6,7]indolizino[1,2-b]quinolin-9-yl)oxy)-N-(2-(5-(3-(2,4-dihydroxy-5-isopropylphenyl)-5-hydroxy-4H-1,2,4-triazol-4-yl)-1H-indol-1-yl)ethyl)acetamide], for which the IC50 was above 3 µM in the data set with H 3211 NSLC cells (setting [5]); above 3 µM with H 3211 NSLC cells (setting [6]); 0.059 µM with H 3211 NSLC cells (setting [7]); 0.239 µM in the data set on H 3211 NSLC cells (setting [8]); 0.113 µM in the data set on H 3211 NSLC cells (setting [9]).

Turning to `CCc1c2c(nc3ccc(O)cc13)-c1cc3c(c(=O)n1C2)COC(=O)C3(CC)OC(=O)CCCNC(=O)c1cc2cc(-n3c(O)nnc3-c3cc(C(C)C)c(O)cc3O)ccc2n1C` (stereo not shown) [SDC-TRAP-0024, 4,11-diethyl-9-hydroxy-3,14-dioxo-3,4,12,14-tetrahydro-1H-pyrano[3′,4′:6,7]indolizino[1,2-b]quinolin-4-yl 4-(5-(3-(2,4-dihydroxy-5-isopropylphenyl)-5-hydroxy-4H-1,2,4-triazol-4-yl)-1-methyl-1H-indole-2-carboxamido)butanoate], in the data set with H 3211 NSLC cells (setting [7]), the IC50 was determined as 0.076 µM.

As to `CCc1c2c(nc3ccc(OCC(=O)N(C)CCn4ccc5cc(-n6c(O)nnc6-c6cc(C(C)C)c(O)cc6O)ccc54)cc13)-c1cc3c(c(=O)n1C2)COC(=O)C3(O)CC` (stereo not shown) [SDC-TRAP-0027, 2-((4,11-diethyl-4-hydroxy-3,14-dioxo-3,4,12,14-tetrahydro-1H-pyrano[3′,4′:6,7]indolizino[1,2-b]quinolin-9-yl)oxy)-N-(2-(5-(3-(2,4-dihydroxy-5-isopropylphenyl)-5-hydroxy-4H-1,2,4-triazol-4-yl)-1H-indol-1-yl)ethyl)-N-methylacetamide], the IC50 with H 3211 NSLC cells (setting [5]) was above 3 µM; with H 3211 NSLC cells (setting [6]) it was above 3 µM; with H 3211 NSLC cells (setting [8]) it was 1.74 µM; in the data set with H 3211 NSLC cells (setting [9]) it was 1.33 µM.

For the compound `CCc1c2c(nc3ccc(OCC(=O)N(C)CCOCCn4ccc5cc(-n6c(O)nnc6-c6cc(C(C)C)c(O)cc6O)ccc54)cc13)-c1cc3c(c(=O)n1C2)COC(=O)C3(O)CC` (stereo not shown) [SDC-TRAP-0028, 2-((4,11-diethyl-4-hydroxy-3,14-dioxo-3,4,12,14-tetrahydro-1H-pyrano[3′,4′:6,7]indolizino[1,2-b]quinolin-9-yl)oxy)-N-(2-(2-(5-(3-(2,4-dihydroxy-5-isopropylphenyl)-5-hydroxy-4H-1,2,4-triazol-4-yl)-1H-indol-1-yl)ethoxy)ethyl)-N-methylacetamide], the IC50 is above 3 µM in the data set on H 3211 NSLC cells (setting [5]); above 3 µM in the data set on H 3211 NSLC cells (setting [6]); 0.468 µM with H 3211 NSLC cells (setting [7]); 1.76 µM with H 3211 NSLC cells (setting [8]); 0.499 µM in the data set on H 3211 NSLC cells (setting [9]). Moreover, the “% Remaining” value in data set [1] (mouse, plasma, 10 μM) was 41%.

On to `CCc1c2c(nc3ccc(OC(=O)N(C)CCOCCn4ccc5cc(-n6c(O)nnc6-c6cc(C(C)C)c(O)cc6O)ccc54)cc13)-c1cc3c(c(=O)n1C2)COC(=O)C3(O)CC` (stereo not shown) [SDC-TRAP-0029, 4,11-diethyl-4-hydroxy-3,14-dioxo-3,4,12,14-tetrahydro-1H-pyrano[3′,4′:6,7]indolizino[1,2-b]quinolin-9-yl (2-(2-(5-(3-(2,4-dihydroxy-5-isopropylphenyl)-5-hydroxy-4H-1,2,4-triazol-4-yl)-1H-indol-1-yl)ethoxy)ethyl)(methyl)carbamate], for which the IC50 in the data set with H 3211 NSLC cells (setting [7]) is 0.079 µM. In addition, in data set [2], the “Media (5 μM) % Remaining 1 h (37° C.) §” value was determined as 43%. Further, in data set [1] (mouse plasma, 10 μM), the “Mouse (10 μM) % Remaining 1 h (37° C.) §” value is on record as 44%. Moreover, the “% Remaining” value in data set [1] (mouse plasma, 37° C.) is listed as 47%.

Turning to `CCc1c2c(nc3ccc(OC(=O)N4CCN(c5ccc(-n6c(O)nnc6-c6cc(C(C)C)c(O)cc6O)cc5)CC4)cc13)-c1cc3c(c(=O)n1C2)COC(=O)C3(O)CC` (stereo not shown) [SDC-TRAP-0045, 4,11-diethyl-4-hydroxy-3,14-dioxo-3,4,12,14-tetrahydro-1H-pyrano[3′,4′:6,7]indolizino[1,2-b]quinolin-9-yl 4-(4-(3-(2,4-dihydroxy-5-isopropylphenyl)-5-hydroxy-4H-1,2,4-triazol-4-yl)phenyl)piperazine-1-carboxylate], the “Media (5 μM) % Remaining 1 h (37° C.) §” value in data set [2] amounted to 72%. In addition, in data set [1] (mouse plasma, 10 μM), the “Mouse (10 μM) % Remaining 1 h (37° C.) §” value is 34%. For the same compound, the “% Remaining” value in data set [1] (mouse plasma, 37° C.) is listed as 45%.

In the case of `CCc1c2c(nc3ccc(OC(=O)N4CCN(Cc5ccc(-n6c(O)nnc6-c6cc(C(C)C)c(O)cc6O)cc5)CC4)cc13)-c1cc3c(c(=O)n1C2)COC(=O)C3(O)CC` (stereo not shown) [SDC-TRAP-0046, 4,11-diethyl-4-hydroxy-3,14-dioxo-3,4,12,14-tetrahydro-1H-pyrano[3′,4′:6,7]indolizino[1,2-b]quinolin-9-yl 4-(4-(3-(2,4-dihydroxy-5-isopropylphenyl)-5-hydroxy-4H-1,2,4-triazol-4-yl)benzyl)piperazine-1-carboxylate], the “Media (5 μM) % Remaining 1 h (37° C.) §” value in data set [2] is reported as 62%. Moreover, in data set [1] (mouse plasma, 10 μM), the “Mouse (10 μM) % Remaining 1 h (37° C.) §” value turned out to be 50%. The “% Remaining” value in data set [1] (mouse plasma, 37° C.) was 52%.

Take `CCNC(=O)c1nnc(-c2cc(C(C)C)c(O)cc2O)n1-c1ccc(CN2CCC(C(=O)N3CCC(C(=O)OC4(CC)C(=O)OCc5c4cc4n(c5=O)Cc5c-4nc4ccc(O)cc4c5CC)CC3)CC2)cc1` (stereo not shown) [SDC-TRAP-0076, 4,11-diethyl-9-hydroxy-3,14-dioxo-3,4,12,14-tetrahydro-1H-pyrano[3′,4′:6,7]indolizino[1,2-b]quinolin-4-yl 1-(1-(4-(3-(2,4-dihydroxy-5-isopropylphenyl)-5-(ethylcarbamoyl)-4H-1,2,4-triazol-4-0)benzyl)piperidine-4-carbonyl)piperidine-4-carboxylate]: the Kp worked out at 0.17 in data set [3] (1 h); 2.25 in data set [3] (6 h); 20.4 in data set [3] (24 h); 6.85 in data set [3] (48 h); 0.01 in data set [3] ([…]). In addition, the “% Remaining” value in data set [1] (mouse plasma, 37° C.) came out at 96%.

In data set [3], `CC(C)c1cc(-c2nnc(O)n2-c2ccc(CC3CCN(CC(=O)Nc4cccc5c4CN(C4CCC(=O)NC4=O)C5=O)CC3)cc2)c(O)cc1O` (stereo not shown) [SDC-TRAP-0116, 2-(4-(4-(3-(2,4-dihydroxy-5-isopropylphenyl)-5-hydroxy-4H-1,2,4-triazol-4-yl)benzyl)piperidin-1-yl)-N-(2-(2,6-dioxopiperidin-3-yl)-1-oxoisoindolin-4-yl) acetamide] showed a Kp at 48 h of 4.65. Also, in data set [1] (mouse, plasma, 10 μM), the “% Remaining” value is on record as 91.1%.

Take `CCc1c2c(nc3ccc(O)cc13)-c1cc3c(c(=O)n1C2)COC(=O)[C@]3(O)CC` [SN-38]: in data set [3] (1 h), the “Plasma Conc.” value is 4.34 µM and the “Tumor/Plasma Ratio” value was found to be 0.11. The compound further yielded a concentration at 1 h in data set [3] (Plasma Conc.) of 8.6 µM. Also, the Kp at 1 h in data set [3] (Tumor/Plasma Ratio) was 0.07.

As for `CC(C)c1cc(-c2n[nH]c(=O)n2-c2ccc3c(ccn3C)c2)c(O)cc1O` [ganetespib], the Concentration in tumor in data set [4] (5 min) came to 2.35 µM. In addition, the Concentration in plasma result in data set [4] (24 hr) was “<LLOQ”. The “Persistence in tumor versus plasma and other tissues” value in data set [4] (up to 24 hr) was “persist longer in tumor than in plasma or any other tissues studied”.
